Data reported in PubChem BioAssay (NCI).
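1) Cells in 96-well plates. 2) Compound, 48 h, 5 concentrations. 3) Linear interpolation between surrounding doses. 4) Unreached endpoint = highest concentration. The concentration for 50% growth inhibition is given as GI50. TGI: total growth inhibition.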

What was measured:
Assay in all cases: growth of human tumour cells (NCI), 48 h
786-0 renal = tested on: 786-0 renal
MCF7 breast = tested on: MCF7 breast
HCC-2998 colon = tested on: HCC-2998 colon
A549 NSCLC = tested on: A549 NSCLC
IGROV1 ovarian = tested on: IGROV1 ovarian
SK-MEL-2 melanoma = tested on: SK-MEL-2 melanoma
NCI-H23 lung = tested on: NCI-H23 lung
SK-OV-3 ovarian = tested on: SK-OV-3 ovarian
UACC-62 melanoma = tested on: UACC-62 melanoma
RPMI-8226 leukemia = tested on: RPMI-8226 leukemia
NCI-H226 lung = tested on: NCI-H226 lung
PC-3 prostate = tested on: PC-3 prostate
MDA-MB-435 = tested on: MDA-MB-435
HS 578T breast = tested on: HS 578T breast
HCT-116 colon = tested on: HCT-116 colon
MOLT-4 leukemia = tested on: MOLT-4 leukemia
OVCAR-5 ovarian = tested on: OVCAR-5 ovarian
CAKI-1 renal = tested on: CAKI-1 renal
NCI/ADR-RES ovarian = tested on: NCI/ADR-RES ovarian
CCRF-CEM leukemia = tested on: CCRF-CEM leukemia
NCI-H522 lung = tested on: NCI-H522 lung
MALME-3M melanoma = tested on: MALME-3M melanoma
OVCAR-3 ovarian = tested on: OVCAR-3 ovarian
SNB-75 CNS = tested on: SNB-75 CNS
OVCAR-8 ovarian = tested on: OVCAR-8 ovarian
COLO 205 colon = tested on: COLO 205 colon
EKVX NSCLC = tested on: EKVX NSCLC
U251 CNS = tested on: U251 CNS
UACC-257 melanoma = tested on: UACC-257 melanoma
HT29 colon = tested on: HT29 colon
SF-295 CNS = tested on: SF-295 CNS
T-47D breast = tested on: T-47D breast
MDA-MB-468 breast = tested on: MDA-MB-468 breast
HOP-62 NSCLC = tested on: HOP-62 NSCLC
UO-31 renal = tested on: UO-31 renal
KM12 colon = tested on: KM12 colon
M14 melanoma = tested on: M14 melanoma
SK-MEL-5 melanoma = tested on: SK-MEL-5 melanoma
MDA-MB-231 breast = tested on: MDA-MB-231 breast
SW-620 colon = tested on: SW-620 colon
A498 renal = tested on: A498 renal
NCI-H460 lung = tested on: NCI-H460 lung
SF-539 CNS = tested on: SF-539 CNS
SNB-19 CNS = tested on: SNB-19 CNS
SN12C renal = tested on: SN12C renal
OVCAR-4 ovarian = tested on: OVCAR-4 ovarian
K-562 leukemia = tested on: K-562 leukemia
HL-60(TB) leukemia = tested on: HL-60(TB) leukemia
RXF 393 renal = tested on: RXF 393 renal
ACHN renal = tested on: ACHN renal
HOP-92 NSCLC = tested on: HOP-92 NSCLC
BT-549 breast = tested on: BT-549 breast
HCT-15 colon = tested on: HCT-15 colon
SF-268 CNS = tested on: SF-268 CNS
TK-10 renal = tested on: TK-10 renal
LOX IMVI melanoma = tested on: LOX IMVI melanoma
DU-145 prostate = tested on: DU-145 prostate
SR leukemia = tested on: SR leukemia
SK-MEL-28 melanoma = tested on: SK-MEL-28 melanoma

Compound: COc1cc2c(c(OC)c1OC)C(=O)CC(c1cccc(NC(=O)c3cc(NC(=O)[C@H](C)N)ccc3Cl)c1)O2 (stereo partly drawn)
- GI50 (786-0 renal): 19.1 µM
- TGI (786-0 renal): 36.7 µM
- GI50 (MCF7 breast): 12.9 µM
- TGI (MCF7 breast): 26.8 µM
- GI50 (HCC-2998 colon): 16.9 µM
- TGI (HCC-2998 colon): 31.3 µM
- GI50 (A549 NSCLC): 15.9 µM
- TGI (A549 NSCLC): 33.3 µM
- GI50 (IGROV1 ovarian): 16.6 µM
- TGI (IGROV1 ovarian): 32.9 µM
- GI50 (SK-MEL-2 melanoma): 14.8 µM
- TGI (SK-MEL-2 melanoma): 33.2 µM
- GI50 (NCI-H23 lung): 15.6 µM
- TGI (NCI-H23 lung): 31.2 µM
- GI50 (SK-OV-3 ovarian): 18.3 µM
- TGI (SK-OV-3 ovarian): 42.2 µM
- GI50 (UACC-62 melanoma): 12.3 µM
- TGI (UACC-62 melanoma): 24.9 µM
- GI50 (RPMI-8226 leukemia): 7.29 µM
- TGI (RPMI-8226 leukemia): 51.7 µM
- GI50 (NCI-H226 lung): 16.8 µM
- TGI (NCI-H226 lung): 38.6 µM
- GI50 (PC-3 prostate): 17.2 µM
- TGI (PC-3 prostate): 69.5 µM
- GI50 (MDA-MB-435): 7.81 µM
- TGI (MDA-MB-435): 21.4 µM
- GI50 (HS 578T breast): 20 µM
- TGI (HS 578T breast): 59.3 µM
- GI50 (HCT-116 colon): 17.5 µM
- TGI (HCT-116 colon): 35.6 µM
- GI50 (MOLT-4 leukemia): 11 µM
- TGI (MOLT-4 leukemia): 34.6 µM
- GI50 (OVCAR-5 ovarian): 18.3 µM
- TGI (OVCAR-5 ovarian): 34.6 µM
- GI50 (CAKI-1 renal): 32.7 µM
- TGI (CAKI-1 renal): > 100 µM
- GI50 (NCI/ADR-RES ovarian): 16.2 µM
- TGI (NCI/ADR-RES ovarian): 47 µM
- GI50 (CCRF-CEM leukemia): 18.5 µM
- TGI (CCRF-CEM leukemia): 65 µM
- GI50 (NCI-H522 lung): 11.3 µM
- TGI (NCI-H522 lung): 26 µM
- GI50 (MALME-3M melanoma): 14.2 µM
- TGI (MALME-3M melanoma): 27.7 µM
- GI50 (OVCAR-3 ovarian): 17.5 µM
- TGI (OVCAR-3 ovarian): 46.7 µM
- GI50 (SNB-75 CNS): 13.3 µM
- TGI (SNB-75 CNS): 65.1 µM
- GI50 (OVCAR-8 ovarian): 16.1 µM
- TGI (OVCAR-8 ovarian): 41.7 µM
- GI50 (COLO 205 colon): 17.1 µM
- TGI (COLO 205 colon): 33.2 µM
- GI50 (EKVX NSCLC): 17.2 µM
- TGI (EKVX NSCLC): 35 µM
- GI50 (U251 CNS): 13.9 µM
- TGI (U251 CNS): 28 µM
- GI50 (UACC-257 melanoma): 14.4 µM
- TGI (UACC-257 melanoma): 29.5 µM
- GI50 (HT29 colon): 18.6 µM
- TGI (HT29 colon): 37.2 µM
- GI50 (SF-295 CNS): 16.3 µM
- TGI (SF-295 CNS): 29.9 µM
- GI50 (T-47D breast): 8.07 µM
- TGI (T-47D breast): 29 µM
- GI50 (MDA-MB-468 breast): 13.5 µM
- TGI (MDA-MB-468 breast): 28.5 µM
- GI50 (HOP-62 NSCLC): 15.1 µM
- TGI (HOP-62 NSCLC): 30.6 µM
- GI50 (UO-31 renal): 12 µM
- TGI (UO-31 renal): 24.7 µM
- GI50 (KM12 colon): 19.3 µM
- TGI (KM12 colon): 37.9 µM
- GI50 (M14 melanoma): 15.5 µM
- TGI (M14 melanoma): 32.6 µM
- GI50 (SK-MEL-5 melanoma): 15.5 µM
- TGI (SK-MEL-5 melanoma): 29.4 µM
- GI50 (MDA-MB-231 breast): 14.6 µM
- TGI (MDA-MB-231 breast): 28.5 µM
- GI50 (SW-620 colon): 15.7 µM
- TGI (SW-620 colon): 30.2 µM
- GI50 (A498 renal): 26 µM
- TGI (A498 renal): 90.5 µM
- GI50 (NCI-H460 lung): 15.3 µM
- TGI (NCI-H460 lung): 30.6 µM
- GI50 (SF-539 CNS): 15.5 µM
- TGI (SF-539 CNS): 28.8 µM
- GI50 (SNB-19 CNS): 15.8 µM
- TGI (SNB-19 CNS): 29.2 µM
- GI50 (SN12C renal): 14.1 µM
- TGI (SN12C renal): 30.9 µM
- GI50 (OVCAR-4 ovarian): 15.6 µM
- TGI (OVCAR-4 ovarian): 47 µM
- GI50 (K-562 leukemia): 7.31 µM
- TGI (K-562 leukemia): 91.9 µM
- GI50 (HL-60(TB) leukemia): 18.8 µM
- TGI (HL-60(TB) leukemia): 37.5 µM
- GI50 (RXF 393 renal): 18.6 µM
- TGI (RXF 393 renal): 37.1 µM
- GI50 (ACHN renal): 15.9 µM
- TGI (ACHN renal): 31 µM
- GI50 (HOP-92 NSCLC): 14.5 µM
- TGI (HOP-92 NSCLC): 48.9 µM
- GI50 (BT-549 breast): 15 µM
- TGI (BT-549 breast): 32 µM
- GI50 (HCT-15 colon): 12 µM
- TGI (HCT-15 colon): 26.9 µM
- GI50 (SF-268 CNS): 18 µM
- TGI (SF-268 CNS): 42.8 µM
- GI50 (TK-10 renal): 19.8 µM
- TGI (TK-10 renal): 42.7 µM
- GI50 (LOX IMVI melanoma): 14.5 µM
- TGI (LOX IMVI melanoma): 29.6 µM
- GI50 (DU-145 prostate): 17.5 µM
- TGI (DU-145 prostate): 34.5 µM
- GI50 (SR leukemia): 5.45 µM
- TGI (SR leukemia): 39.2 µM
- GI50 (SK-MEL-28 melanoma): 16.6 µM
- TGI (SK-MEL-28 melanoma): 30.2 µM
